Laboratory results taken from patent US6984624B2, “Composition containing an iron complexing protein and a precursor of nitrogen monoxide metabolism and/or a chemical donor of nitrogen monoxide and uses thereof” (Isocell S.A., priority 2000, dated 2006).

What was measured:
Format in all cases: cell-based, human
[1] = system: Intestinal epithelial cells of the Caco-2 line; assay: Iron fixation at the cellular level with added chemical donor of NO (Example 2); settings: SNAP between 0 and 1 μM added to tubes 2 (Lf-^59Fe) and 4 (Lf-^59Fe + ^59Fe) of Table II
Description: (§1) Intestinal epithelial cells of the Caco-2 line derived from a colon cancer were incubated in a proportion of 2×10^6 cells per ml in an RPMI 1640 medium buffered at pH 7.4, in the presence of 25 mmolar of Hepes, containing 15% (v/v) of fetal calf serum, 2 mmol/l of L-glutamine and 1% (v/v) of a solution of streptomycin-penicillin, sold by the company Gibco.
Tubes of intestinal epithelial cell cultures were prepared and cultured under the same conditions as those described above in Example 1.
Iron fixation at the cellular level was then initiated by adding Lf-^59Fe and/or labeled iron.
One of the cell culture tubes received none of the constituents, so as to serve as a control.
The distribution of the constituents, and also the concentrations at which they were used, appear in Table II below:
The culture tubes then received SNAP in amounts ranging between 0 and 1 μM, and the cellular fixation of radiolabeled iron were then measured using a device for measuring the radioactivity.

[2] = system: Intestinal epithelial cells of the Caco-2 line; assay: Degree of iron fixation at the cellular level as a function of concentrations (Example 3); settings: Caco-2 cells, after 72 hours of incubation; tube contents per Table III (mg/ml); Control = 1
Description: as §1
Twelve tubes of epithelial cell cultures were prepared according to the conditions described above in Example 1.
Iron fixation at the cellular level was then initiated by adding Lf-^59Fe and/or labeled iron and/or L-arginine.
One of the cell culture tubes received none of these three constituents, so as to act as a control.
The distribution of the constituents, and also the concentrations at which they were used, appear in Table III below:
The degree of cellular fixation of iron was measured after 72 hours of incubation using a device for measuring the radioactivity.

[3] = system: Intestinal epithelial cells of the Caco-2 line; assay: Iron fixation at the cellular level with added inhibitor of the L-arginine pathway (Example 1, FIG. 2); settings: 1 mM added to the medium of tubes 1, 2, 4 and 8 of Table I; virtually returned to the degree without L-arginine (tube 2)
Description: as §1
The cells were then incubated for a period of 16 hours in Eppendorf tubes kept stirring for the final 2 hours of the culture period. Throughout the incubation period, the amount of cellular iron was measured by centrifugation pellet of the cells a first time after 30 minutes (t=0.5), then after one hour (t=1), and then every hour (t=2 to t=16), using a device for measuring the radioactivity.

SMILES: CC(=O)N[C@H](C(=O)O)C(C)(C)SN=O (racemic) [SNAP, S-nitroso-N-acetylpenicillamine]
- Degree of iron fixation in the epithelial cells after addition of SNAP [1]: increase the degree of iron fixation in the epithelial cells

SMILES: N=C(N)NCCC[C@H](N)C(=O)O [Cell culture tube 8, L-arginine, reference compound]
- Degree of iron fixation in the cells (cpm ^59Fe) [2]: 1 cpm ^59Fe

SMILES: COC(=O)[C@@H](N)CCCNC(=N)N[N+](=O)[O-] [L-NAME, N^ω-nitro-L-arginine methyl ester]
- Degree of iron fixation at the cellular level after addition of L-NAME [3]: very large decrease in the degree of iron fixation at the cellular level
